target: T1, PI3Kδ (p110δ/p85α) (Homo sapiens, UniProt O00329); test: PI3Kδ scintillation proximity assay; format: biochemical; conditions: 20 μM ATP, 4 nM PI3Kδ
T1 construct: purchased Millipore (Bedford, Mass.)
From the text: Example A: PI3Kδ Scintillation Proximity Assay
Materials: [γ-^33P]ATP (10 mCi/mL) was purchased from Perkin-Elmer (Waltham, Mass.). Lipid kinase substrate, D-myo-Phosphatidylinositol 4,5-bisphosphate (PtdIns(4,5)P2)D (+)-sn-1,2-di-O-octanoylglyceryl, 3-O-phospho linked (PIP2), CAS 204858-53-7, was purchased from Echelon Biosciences (Salt Lake City, Utah). PI3Kδ (p110δ/p85α) was purchased from Millipore (Bedford, Mass.). ATP, MgCl2, DTT, EDTA, MOPS and CHAPS were purchased from Sigma-Aldrich (St. Louis, Mo.). Wheat Germ Agglutinin (WGA) YSi SPA Scintillation Beads was purchased from GE healthcare life sciences (Piscataway, N.J.).
The kinase reaction was conducted in polystyrene 384-well matrix white plate from Thermo Fisher Scientific in a final volume of 25 μL. Inhibitors were first diluted serially in DMSO and added to the plate wells before the addition of other reaction components. The final concentration of DMSO in the assay was 0.5%. The PI3K assays were carried out at room temperature in 20 mM MOPS, pH 6.7, 10 mM MgCl2, 5 mM DTT and CHAPS 0.03%. Reactions were initiated by the addition of ATP, the final reaction mixture consisted of 20 μM PIP2,20 μM ATP, 0.2 μCi [γ-^33P] ATP, 4 nM PI3Kδ. Reactions were incubated for 210 minutes and terminated by the addition of 40 μL SPA beads suspended in quench buffer: 150 mM potassium phosphate pH 8.0, 20% glycerol. 25 mM EDTA, 400 µM ATP. The final concentration of SPA beads is 1.0 mg/mL. After the plate sealing, plates were shaken overnight at room temperature and centrifuged at 1800 rpm for 10 minutes, the radioactivity of the product was determined by scintillation counting on Topcount (Perkin-Elmer). IC50 determination was performed by fitting the curve of percent control activity versus the log of the inhibitor concentration using the GraphPad Prism 3.0 software.

T1 sequence (O00329 whole entry, species assumed): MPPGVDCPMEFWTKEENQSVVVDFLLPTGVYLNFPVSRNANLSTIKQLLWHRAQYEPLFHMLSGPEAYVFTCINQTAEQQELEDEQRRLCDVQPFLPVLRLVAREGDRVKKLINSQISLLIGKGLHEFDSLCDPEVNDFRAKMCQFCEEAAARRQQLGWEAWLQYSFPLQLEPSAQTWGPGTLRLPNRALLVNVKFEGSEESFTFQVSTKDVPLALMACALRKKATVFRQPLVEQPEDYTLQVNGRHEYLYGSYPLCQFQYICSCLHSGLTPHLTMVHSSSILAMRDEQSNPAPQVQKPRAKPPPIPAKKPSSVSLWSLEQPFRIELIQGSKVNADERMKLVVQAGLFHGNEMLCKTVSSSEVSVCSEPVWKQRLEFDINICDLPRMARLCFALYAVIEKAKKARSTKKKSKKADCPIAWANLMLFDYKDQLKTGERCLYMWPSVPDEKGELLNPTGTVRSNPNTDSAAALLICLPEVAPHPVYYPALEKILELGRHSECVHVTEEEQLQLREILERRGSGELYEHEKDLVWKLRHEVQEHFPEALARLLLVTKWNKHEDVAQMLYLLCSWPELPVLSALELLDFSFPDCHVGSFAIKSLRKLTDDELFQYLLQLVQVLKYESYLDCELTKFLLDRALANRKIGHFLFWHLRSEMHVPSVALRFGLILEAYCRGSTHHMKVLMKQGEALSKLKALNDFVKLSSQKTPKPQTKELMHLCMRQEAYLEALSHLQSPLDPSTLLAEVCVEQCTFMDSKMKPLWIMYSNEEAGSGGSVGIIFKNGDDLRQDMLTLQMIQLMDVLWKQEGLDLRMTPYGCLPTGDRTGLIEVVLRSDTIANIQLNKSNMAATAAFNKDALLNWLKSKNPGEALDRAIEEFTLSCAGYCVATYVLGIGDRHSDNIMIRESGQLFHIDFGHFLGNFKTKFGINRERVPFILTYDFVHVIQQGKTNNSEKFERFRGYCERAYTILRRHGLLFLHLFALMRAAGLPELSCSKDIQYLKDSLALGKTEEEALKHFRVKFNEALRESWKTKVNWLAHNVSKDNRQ
T1 sequence (P27986 whole entry partner, species assumed): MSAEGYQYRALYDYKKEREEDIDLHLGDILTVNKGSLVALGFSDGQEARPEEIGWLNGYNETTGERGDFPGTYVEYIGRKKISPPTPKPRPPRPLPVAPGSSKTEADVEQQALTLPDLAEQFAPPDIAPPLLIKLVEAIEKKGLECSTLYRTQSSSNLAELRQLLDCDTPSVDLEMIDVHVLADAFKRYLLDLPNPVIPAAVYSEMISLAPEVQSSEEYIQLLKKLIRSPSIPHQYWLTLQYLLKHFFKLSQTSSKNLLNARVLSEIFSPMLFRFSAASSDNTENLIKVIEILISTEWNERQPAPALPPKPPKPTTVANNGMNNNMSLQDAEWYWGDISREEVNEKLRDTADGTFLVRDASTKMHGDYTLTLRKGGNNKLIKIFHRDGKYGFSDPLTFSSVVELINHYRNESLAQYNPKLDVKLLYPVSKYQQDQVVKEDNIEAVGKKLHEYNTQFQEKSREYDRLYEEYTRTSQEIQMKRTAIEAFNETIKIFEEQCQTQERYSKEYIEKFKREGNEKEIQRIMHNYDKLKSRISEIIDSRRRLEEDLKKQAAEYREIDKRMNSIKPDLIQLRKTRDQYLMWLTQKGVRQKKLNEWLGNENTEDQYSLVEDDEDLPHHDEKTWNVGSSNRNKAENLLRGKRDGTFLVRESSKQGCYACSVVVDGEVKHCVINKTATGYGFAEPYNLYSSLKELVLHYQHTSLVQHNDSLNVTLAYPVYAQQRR

Row | Compound | IC50 [nM]
1 | COc1c(C(C)Nc2ncnc3[nH]cnc23)cc(F)c(C)c1-c1ccnn1C (centres unmarked) [Example 122, N-{1-[5-fluoro-2-methoxy-4-methyl-3-(1-methyl-1H-pyrazol-5-yl)phenyl]ethyl}-9H-purin-6-amine] | 250 to 500
2 | COc1c(C(C)Nc2ncnc3[nH]cnc23)cc(F)c(C)c1-c1cnc(N)nc1 (centres unmarked) [Example 123, N-{1-[3-(2-aminopyrimidin-5-yl)-5-fluoro-2-methoxy-4-methylphenyl]ethyl}-9H-purin-6-amine] | 50 to 100
3 | COc1c(-c2cncc(Cl)c2)cc(Cl)cc1C(C)Nc1ncnc2[nH]cnc12 (centres unmarked) [Example 125, N-{1-[5-Chloro-3-(5-chloropyridin-3-yl)-2-methoxyphenyl]ethyl}-9H-purin-6-amine] | 50 to 100
4 | CC(Nc1ncnc2[nH]cnc12)c1cc(Cl)cc(-c2cc(F)nc(F)c2)c1-c1cc(F)cc(F)c1 (centres unmarked) [Example 133, N-{1-[4-chloro-6-(2,6-difluoropyridin-4-yl)-3′,5′-difluorobiphenyl-2-yl]ethyl}-9H-purin-6-amine] | 50 to 100
5 | COc1c(-c2cc(F)nc(F)c2)cc(Cl)cc1C(C)Nc1ncnc2[nH]cnc12 (centres unmarked) [Example 141, N-{1-[5-chloro-3-(2,6-difluoropyridin-4-yl)-2-methoxyphenyl]ethyl}-9H-purin-6-amine] | 250 to 500
6 | COc1c(-c2ccc(S(C)(=O)=O)cc2)cc(Cl)cc1C(C)Nc1ncnc2[nH]cnc12 (centres unmarked) [Example 142, N-{1-[5-chloro-2-methoxy-4′-(methylsulfonyl)-biphenyl-3-yl]ethyl}-9H-purin-6-amine] | 50 to 100
7 | COc1c(-c2cnc(N)nc2)cc(Cl)cc1C(C)Nc1ncnc2[nH]cnc12 (centres unmarked) [Example 143, N-{1-[3-(2-amino-pyrimidin-5-yl)-5-chloro-2-methoxyphenyl]-ethyl}-9H-purin-6-amine] | 100 to 250
8 | CNC(=O)c1ccc(-c2cc(Cl)cc(C(C)Nc3ncnc4[nH]cnc34)c2OC)cc1Cl (centres unmarked) [Example 144, 3,5′-dichloro-2′-methoxy-N-methyl-3′-[1-(9H-purin-6-ylamino)ethyl]biphenyl-4-carboxamide] | < 50
9 | COc1c(-c2ccnc(F)c2)cc(Cl)cc1C(C)Nc1ncnc2[nH]cnc12 (centres unmarked) [Example 145, N-{1-[5-chloro-3-(2-fluoropyridin-4-yl)-2-methoxyphenyl]ethyl}-9H-purin-6-amine] | < 50
10 | COc1cncc(-c2cc(Cl)cc(C(C)Nc3ncnc4[nH]cnc34)c2OC)c1 (centres unmarked) [Example 146, N-{1-[5-chloro-2-methoxy-3-(5-methoxy-pyridin-3-yl)phenyl]ethyl}-9H-purin-6-amine] | 50 to 100
11 | COc1c(-c2ccc(F)nc2)cc(Cl)cc1C(C)Nc1ncnc2[nH]cnc12 (centres unmarked) [Example 147, N-{1-[5-chloro-3-(6-fluoropyridin-3-yl)-2-methoxyphenyl]-ethyl}-9H-purin-6-amine] | < 50
12 | COc1ccc(-c2cc(Cl)cc(C(C)Nc3ncnc4[nH]cnc34)c2OC)cn1 (centres unmarked) [Example 148, N-{1-[5-chloro-2-methoxy-3-(6-methoxypyridin-3-yl)phenyl]ethyl}-9H-purin-6-amine] | 50 to 100
13 | Cc1c(Cl)cc(C(C)Nc2ncnc3[nH]cnc23)c(OCCN2CCOCC2)c1-c1cnc(N)nc1 (centres unmarked) [Example 149, N-{1-[3-(2-amino-pyrimidin-5-yl)-5-chloro-4-methyl-2-(2-morpholin-4-ylethoxy)-phenyl]ethyl}-9H-purin-6-amine] | < 50
14 | COc1cccc(-c2c(C)c(Cl)cc(C(C)Nc3ncnc4[nH]cnc34)c2OCCN2CCOCC2)c1 (centres unmarked) [Example 150, N-{1-[5-chloro-3′-methoxy-6-methyl-2-(2-mor-pholin-4-ylethoxy)-biphenyl-3-yl]ethyl}-9H-purin-6-amine] | < 50
15 | Cc1c(Cl)cc(C(C)Nc2ncnc3[nH]cnc23)c(OCCN2CCOCC2)c1-c1cncc(Cl)c1 (centres unmarked) [Example 151, N-{1-[5-chloro-3-(5-chloro-pyridin-3-yl)-4-methyl-2-(2-morpho-lin-4-yl-ethoxy)-phenyl]-ethyl}-9H-purin-6-amine] | < 50
16 | Cc1c(Cl)cc(C(C)Nc2ncnc3[nH]cnc23)c(OCCN2CCOCC2)c1-c1ccnn1C (centres unmarked) [Example 152, N-{1-[5-chloro-4-methyl-3-(1-methyl-1H-pyrazol-5-yl)-2-(2-morpholin-4-ylethoxy)-phenyl]-ethyl}-9H-purin-6-amine] | < 50
17 | COc1ccc(-c2c(C)c(Cl)cc(C(C)Nc3ncnc4[nH]cnc34)c2OCCN2CCOCC2)cc1OC (centres unmarked) [Example 153, N-{1-[5-chloro-3′,4′-dimethoxy-6-methyl-2-(2-mor-pholin-4-ylethoxy)-biphenyl-3-yl]ethyl}-9H-purin-6-amine] | < 50
18 | CNC(=O)c1ccc(-c2c(C)c(Cl)cc(C(C)Nc3ncnc4[nH]cnc34)c2OCCN2CCOCC2)cc1Cl (centres unmarked) [Example 154] | < 50
19 | Cc1c(Cl)cc(C(C)Nc2ncnc3[nH]cnc23)c(OCCN2CCOCC2)c1-c1cncc(C(=O)N2CCOCC2)c1 (centres unmarked) [Example 155, N-{1-[5-chloro-4-methyl-3-[5-(morpholin-4-ylcarbonyl)-pyridin-3-yl]-2-(2-morpholin-4-ylethoxy)-phenyl]-ethyl}-9H-purin-6-amine] | < 50
20 | Cc1c(Cl)cc(C(C)Nc2ncnc3[nH]cnc23)c(OCCN2CCOCC2)c1-c1cncc(S(C)(=O)=O)c1 (centres unmarked) [Example 156, N-{1-[5-chloro-4-methyl-3-[5-(methyl-sulfonyl)-pyridin-3-yl]-2-(2-morpholin-4-ylethoxy)-phenyl]-ethyl}-9H-purin-6-amine] | < 50
21 | COc1cncc(-c2c(C)c(Cl)cc(C(C)Nc3ncnc4[nH]cnc34)c2OCCN2CCOCC2)c1 (centres unmarked) [Example 157, N-{1-[5-chloro-3-(5-methoxy-pyridin-3-yl)-4-methyl-2-(2-mor-pholin-4-ylethoxy)-phenyl]-ethyl}-9H-purin-6-amine] | < 50
22 | CC(=O)Nc1ccc(-c2c(C)c(Cl)cc(C(C)Nc3ncnc4[nH]cnc34)c2OCCN2CCOCC2)cn1 (centres unmarked) [Example 158, N-(5-{3-chloro-2-methyl-6-(2-morpholin-4-ylethoxy)-5-[1-(9H-purin-6-yl-amino)ethyl]-phenyl}-pyridin-2-yl)acetamide] | < 50

Results, then the compound that gave them:

Row | IC50 [nM] | Compound
23 | < 50 | COc1c(C(C)Nc2ncnc3[nH]cnc23)cc(F)c(C)c1-c1cnn(C)c1 (centres unmarked) [Example 121, N-{1-[5-fluoro-2-methoxy-4-methyl-3-(1-methyl-1H-pyrazol-4-yl)phenyl]ethyl}-9H-purin-6-amine]
24 | < 50 | Cc1c(Cl)cc(C(C)Nc2ncnc3[nH]cnc23)c(OCCN2CCOCC2)c1-c1ccncc1 (centres unmarked) [Example 126, N-{1-[5-Chloro-4-methyl-2-(2-morpholin-4-ylethoxy)-3-pyridin-4-ylphenyl]ethyl}-9H-purin-6-amine]
25 | < 50 | Cc1c(Cl)cc(C(C)Nc2ncnc3[nH]cnc23)c(C)c1-c1ccncc1 (centres unmarked) [Example 127, N-[1-(5-Chloro-2,4-dimethyl-3-pyridin-4-ylphenyl)ethyl]-9H-purin-6-amine]
26 | < 50 | Cc1c(Cl)cc(C(C)Nc2ncnc3[nH]cnc23)c(OCCN2CCOCC2)c1-c1ccc(S(C)(=O)=O)cc1 (centres unmarked) [Example 128, N-{1-[5-Chloro-6-methyl-4′-(methylsulfonyl)-2-(2-morpholin-4-ylethoxy)biphenyl-3-yl]ethyl}-9H-purin-6-amine]
27 | < 50 | COc1ncc(-c2cc(Cl)cc(C(C)Nc3ncnc4[nH]cnc34)c2-c2cc(F)cc(F)c2)cn1 (centres unmarked) [Example 129, N-{1-[4-chloro-3′,5′-difluoro-6-(2-methoxy-pyrimidin-5-yl)biphenyl-2-yl]ethyl}-9H-purin-6-amine]
28 | < 50 | CC(=O)Nc1ccc(-c2cc(Cl)cc(C(C)Nc3ncnc4[nH]cnc34)c2-c2cc(F)cc(F)c2)cc1 (centres unmarked) [Example 130, N-{5′-chloro-3″,5″-difluoro-3′-[1-(9H-purin-6-ylamino)ethyl]-1,1′:2′,1″-terphenyl-4-yl}acetamide]
29 | < 50 | CC(Nc1ncnc2[nH]cnc12)c1cc(Cl)cc(-c2ccncc2)c1-c1cc(F)cc(F)c1 (centres unmarked) [Example 131, N-[1-(4-chloro-3′,5′-difluoro-6-pyridin-4-ylbiphenyl-2-yl)ethyl]-9H-purin-6-amine]
30 | < 50 | CC(Nc1ncnc2[nH]cnc12)c1cc(Cl)cc(-c2cncnc2)c1-c1cc(F)cc(F)c1 (centres unmarked) [Example 132, N-[1-(4-chloro-3′,5′-difluoro-6-pyrimidin-5-ylbiphenyl-2-yl)ethyl]-9H-purin-6-amine]
31 | < 50 | CC(Nc1ncnc2[nH]cnc12)c1cc(Cl)cc(-c2ccc(S(C)(=O)=O)cc2)c1-c1cc(F)cc(F)c1 (centres unmarked) [Example 134, N-{1-[5′-chloro-3″,5″-difluoro-4-(methyl-sulfonyl)-1,1′:2′,1″-terphenyl-3′-yl]ethyl}-9H-purin-6-amine]
32 | < 50 | CC(Nc1ncnc2[nH]cnc12)c1cc(Cl)cc(-c2cnc(N)nc2)c1-c1cc(F)cc(F)c1 (centres unmarked) [Example 135, N-{1-[6-(2-amino-pyrimidin-5-yl)-4-chloro-3′,5′-difluorobiphenyl-2-yl]ethyl}-9H-purin-6-amine]

From patent publication US9815839B2, “N-(1-(substituted-phenyl)ethyl)-9H-purin-6-amines as PI3K inhibitors” (Incyte Corporation, priority 2010, dated 2017)
